≈ marks a conversion by molar mass, not a printed value.
Assays:
[1] = test system: L. pneumophila serogroup 1; test: microbe, parasite or virus in culture; format: cell-based, Legionella pneumophila; settings: Legionella pneumophila; for MIC: 48 h, read-out: MIC Range; for MIC90: L. pneumophila serogroup 1 (n = 85)
[2] = test system: L. pneumophila serogroup 2; test: microbe, parasite or virus in culture; format: cell-based; settings: Legionella pneumophila; for MIC: 48 h, read-out: MIC Range
[3] = test system: L. pneumophila serogroup 3; test: microbe, parasite or virus in culture; format: cell-based; settings: Legionella pneumophila; for MIC: 48 h, read-out: MIC Range
[4] = test system: L. pneumophila serogroup 4; test: microbe, parasite or virus in culture; format: cell-based; settings: Legionella pneumophila; for MIC: 48 h, read-out: MIC Range
[5] = test system: L. pneumophila serogroup 5; test: microbe, parasite or virus in culture; format: cell-based; settings: Legionella pneumophila; for MIC: 48 h, read-out: MIC Range
[6] = test system: L. pneumophila serogroup 6; test: microbe, parasite or virus in culture; format: cell-based; settings: Legionella pneumophila; for MIC: 48 h, read-out: MIC Range
[7] = test system: L. pneumophila serogroup 7; test: microbe, parasite or virus in culture; format: cell-based; settings: Legionella pneumophila; for MIC: 48 h, read-out: MIC Range
[8] = test system: L. pneumophila serogroup 8, 9; test: microbe, parasite or virus in culture; format: cell-based; settings: Legionella pneumophila; for MIC: 48 h, read-out: MIC Range
[9] = test system: L. dumoffii; test: organism not typed; format: cell-based; settings: for MIC: 48 h, read-out: MIC Range
[10] = test system: L. micadadei; test: organism not typed; format: cell-based, L. micdadei; settings: for MIC: 48 h, read-out: MIC Range
[11] = test system: L. longbeacheae; test: organism not typed; format: cell-based; settings: for MIC: 48 h, read-out: MIC Range
[12] = test system: Other Legionella spp.; test: microbe, parasite or virus in culture; format: cell-based; settings: for MIC: 48 h, read-out: MIC Range
[13] = test system: Erythromycin-susceptible L. pneumophila; format: cell-based, Legionella pneumophila; settings: Erythromycin-susceptible L. pneumophila (n = 15); 4 × MIC; mean ± SD
[14] = test system: Erythromycin-susceptible Legionella spp. other than L. pneumophila; format: cell-based; settings: Erythromycin-susceptible Legionella spp. (n = 13); 4 × MIC; mean ± SD
[15] = test system: isolates of Legionella pneumophila and other Legionella spp.; test: microbe, parasite or virus in culture; format: cell-based

SMILES | MIC50 [1] | MIC [1] | MIC90 [1] | MIC50 [2] | MIC90 [2] | MIC [2] | MIC50 [3] | MIC90 [3] | MIC [3] | MIC50 [4] | MIC90 [4] | MIC [4] | MIC50 [5] | MIC90 [5] | MIC [5] | MIC50 [6] | MIC90 [6] | MIC [6] | MIC50 [7] | MIC90 [7] | other results
CC1COc2c(N3CCN(C)CC3)c(F)cc3c(=O)c(C(=O)O)cn1c23 (stereo not shown) [Ofloxacin] | 0.03 µg/mL (≈ 0.083 µM) | 0.008 to 0.03 µg/mL (≈ 0.0221 to 0.083 µM) | 0.03 µg/mL (≈ 0.083 µM) | 16 ng/mL (≈ 0.0443 µM) | 30 ng/mL (≈ 0.083 µM) | 8 to 30 ng/mL (≈ 0.0221 to 0.083 µM) | 16 ng/mL (≈ 0.0443 µM) | 0.03 µg/mL (≈ 0.083 µM) | 0.016 to 0.03 µg/mL (≈ 0.0443 to 0.083 µM) | 0.03 µg/mL (≈ 0.083 µM) | 0.03 µg/mL (≈ 0.083 µM) | 8 to 30 ng/mL (≈ 0.0221 to 0.083 µM) | 16 ng/mL (≈ 0.0443 µM) | 0.03 µg/mL (≈ 0.083 µM) | 8 to 30 ng/mL (≈ 0.0221 to 0.083 µM) | 30 ng/mL (≈ 0.083 µM) | 0.03 µg/mL (≈ 0.083 µM) | 8 to 30 ng/mL (≈ 0.0221 to 0.083 µM) | 30 ng/mL (≈ 0.083 µM) | 0.03 µg/mL (≈ 0.083 µM) | MIC [7]: 0.03 µg/mL (≈ 0.083 µM); MIC50 [8]: 30 ng/mL (≈ 0.083 µM); MIC90 [8]: 0.03 µg/mL (≈ 0.083 µM); MIC [8]: 0.03 µg/mL (≈ 0.083 µM); MIC50 [9]: 0.03 µg/mL (≈ 0.083 µM); MIC90 [9]: 0.03 µg/mL (≈ 0.083 µM); MIC [9]: 0.03 µg/mL (≈ 0.083 µM); MIC50 [10]: 0.03 µg/mL (≈ 0.083 µM); MIC90 [10]: 0.03 µg/mL (≈ 0.083 µM); MICs fold more active than erythromycin [10]: 5 fold; MIC [10]: 0.03 µg/mL (≈ 0.083 µM); MIC50 [11]: 0.03 µg/mL (≈ 0.083 µM); MIC90 [11]: 0.03 µg/mL (≈ 0.083 µM); MIC [11]: 0.016 to 0.03 µg/mL (≈ 0.0443 to 0.083 µM); MIC50 [12]: 0.016 µg/mL (≈ 0.0443 µM); MIC90 [12]: 0.06 µg/mL (≈ 0.166 µM); MIC [12]: 4 to 60 ng/mL (≈ 0.0111 to 0.166 µM); Mean PAE [13]: 3.53 ± 3 h; Mean PAE [14]: 3.04 ± 2 h; MIC90 [15]: 0.03 µg/mL (≈ 0.083 µM)
C[C@H]1COc2c(N3CCN(C)CC3)c(F)cc3c(=O)c(C(=O)O)cn1c23 [Levofloxacin] | 0.016 µg/mL (≈ 0.0443 µM) | 0.004 to 0.016 µg/mL (≈ 0.0111 to 0.0443 µM) | 0.016 µg/mL (≈ 0.0443 µM) | 8 ng/mL (≈ 0.0221 µM) | 8 ng/mL (≈ 0.0221 µM) | 4 to 16 ng/mL (≈ 0.0111 to 0.0443 µM) | 8 ng/mL (≈ 0.0221 µM) | 0.016 µg/mL (≈ 0.0443 µM) | 0.008 to 0.016 µg/mL (≈ 0.0221 to 0.0443 µM) | 0.016 µg/mL (≈ 0.0443 µM) | 0.016 µg/mL (≈ 0.0443 µM) | 4 to 16 ng/mL (≈ 0.0111 to 0.0443 µM) | 8 ng/mL (≈ 0.0221 µM) | 0.016 µg/mL (≈ 0.0443 µM) | 4 to 16 ng/mL (≈ 0.0111 to 0.0443 µM) | 8 ng/mL (≈ 0.0221 µM) | 0.016 µg/mL (≈ 0.0443 µM) | 8 to 16 ng/mL (≈ 0.0221 to 0.0443 µM) | 8 ng/mL (≈ 0.0221 µM) | 0.016 µg/mL (≈ 0.0443 µM) | MIC [7]: 0.008 to 0.016 µg/mL (≈ 0.0221 to 0.0443 µM); MIC50 [8]: 8 ng/mL (≈ 0.0221 µM); MIC90 [8]: 0.016 µg/mL (≈ 0.0443 µM); MIC [8]: 0.008 to 0.016 µg/mL (≈ 0.0221 to 0.0443 µM); MIC50 [9]: 0.016 µg/mL (≈ 0.0443 µM); MIC90 [9]: 0.016 µg/mL (≈ 0.0443 µM); MIC [9]: 0.016 µg/mL (≈ 0.0443 µM); MIC50 [10]: 0.016 µg/mL (≈ 0.0443 µM); MIC90 [10]: 0.016 µg/mL (≈ 0.0443 µM); MIC [10]: 0.008 to 0.016 µg/mL (≈ 0.0221 to 0.0443 µM); MIC50 [11]: 0.016 µg/mL (≈ 0.0443 µM); MIC90 [11]: 0.016 µg/mL (≈ 0.0443 µM); MIC [11]: 0.008 to 0.016 µg/mL (≈ 0.0221 to 0.0443 µM); MIC50 [12]: 0.016 µg/mL (≈ 0.0443 µM); MIC90 [12]: 0.016 µg/mL (≈ 0.0443 µM); MIC [12]: 8 to 60 ng/mL (≈ 0.0221 to 0.166 µM); Mean PAE [13]: 2.14 ± 2 h; Mean PAE [14]: 1.35 ± 1 h; MIC90 [15]: 0.016 µg/mL (≈ 0.0443 µM)
N[C@@H]1[C@H]2CN(c3nc4c(cc3F)c(=O)c(C(=O)O)cn4-c3ccc(F)cc3F)C[C@@H]12 [Trovafloxacin] | ≤ 0.004 µg/mL | 0.004 to 0.016 µg/mL (≈ 0.00961 to 0.0384 µM) | ≤ 0.004 µg/mL | ≤ 4 ng/mL | ≤ 4 ng/mL | ≤ 4 ng/mL | ≤ 4 ng/mL | ≤ 0.004 µg/mL | ≤ 0.004 µg/mL | ≤ 0.004 µg/mL | ≤ 0.004 µg/mL | ≤ 4 ng/mL | ≤ 4 ng/mL | ≤ 0.004 µg/mL | 4 to 8 ng/mL (≈ 0.00961 to 0.0192 µM) | ≤ 4 ng/mL | ≤ 0.004 µg/mL | ≤ 4 ng/mL | ≤ 4 ng/mL | ≤ 0.004 µg/mL | MIC [7]: ≤ 0.004 µg/mL; MIC50 [8]: ≤ 4 ng/mL; MIC90 [8]: ≤ 0.004 µg/mL; MIC [8]: ≤ 0.004 µg/mL; MIC50 [9]: 0.008 µg/mL (≈ 0.0192 µM); MIC90 [9]: 0.008 µg/mL (≈ 0.0192 µM); MIC [9]: 0.004 to 0.008 µg/mL (≈ 0.00961 to 0.0192 µM); MIC50 [10]: ≤ 0.004 µg/mL; MIC90 [10]: ≤ 0.004 µg/mL; MIC [10]: ≤ 0.004 µg/mL; MIC50 [11]: ≤ 0.004 µg/mL; MIC90 [11]: ≤ 0.004 µg/mL; MIC [11]: ≤ 0.004 µg/mL; MIC50 [12]: ≤ 0.004 µg/mL; MIC90 [12]: ≤ 0.004 µg/mL; MIC [12]: ≤ 4 ng/mL; Mean PAE [13]: 1.71 ± 1 h; Mean PAE [14]: 1.22 ± 1 h; MIC90 [15]: ≤ 0.008 µg/mL
